Article PMC7893793 (ACS Omega, 2021)

Assays:
[1] = Stability of analytes in rat plasma samples; format: in vitro ADME; details: three freeze–thaw (−80 °C–room temperature) cycles, low, medium and high QC samples
[2] = Pharmacokinetic study in rats after oral administration of PbR extract; format: in vivo, rat; details: for AUC(0-inf) / AUC(0-t) / Cmax / MRT inf / MRT last / Tmax / half-life: male, Wistar, plasma, po, 5 g/kg; for AUC(0-inf) / AUC(0-t) / Cmax / MRT inf / MRT last / Tmax / half-life / absorption characteristics: rat; for absorption characteristics: oral administration of PbR

freeze–thaw stability in plasma samples [1]	AUC(0-inf) [2]	AUC(0-t) [2]	Cmax [2]	MRT inf [2]	MRT last [2]	Tmax [2]	half-life [2]	absorption characteristics [2]	detection in rat plasma ([2]; after oral administration of PbR at a dose of 0.5 g/100 g)	Compound
No significant degradation	63.2 ± 17.4 ng·h/mL	55.1 ± 15.5 ng·h/mL	24.4 ± 8.4 ng/mL	4.65 ± 1.43 h	3.12 ± 0.64 h	19.8 ± 7.8 min	200 ± 72.6 min	good absorption characteristics		COC(=O)C1=CO[C@@H](O[C@@H]2O[C@H](CO)[C@@H](O)[C@H](O)[C@H]2O)[C@H]2[C@@H]1[C@H](O)C[C@]2(C)OC(C)=O [barlerin]
									neither of these were detected	C[C@@H]1O[C@@H](O[C@@H]2[C@@H](O)[C@H](OCCc3ccc(O)c(O)c3)O[C@H](COC(=O)/C=C/c3ccc(O)c(O)c3)[C@H]2O)[C@H](O)[C@H](O)[C@H]1O [isoacteoside]
No significant degradation	159 ± 34.2 ng·h/mL	141 ± 33.4 ng·h/mL	41.6 ± 13.8 ng/mL	5.28 ± 0.73 h	3.84 ± 0.61 h	42 ± 8.4 min	215 ± 63 min	good absorption characteristics		COC(=O)C1=CO[C@@H](O[C@@H]2O[C@H](CO)[C@@H](O)[C@H](O)[C@H]2O)[C@H]2[C@@H]1[C@H](O)C[C@]2(C)O [shanzhiside methyl ester]
